The record followed here is patent publication US12478081B2, “Application of aspartic acid derivative in preparing animal feed additive” (ANIPHA TECHNOLOGIES PTY LTD, priority 2018, dated 2025).

Data set [1] is described as follows: Thermal stability of compounds at 60° C. (HPLC content of raw material and 2% premix). The data set is classed as physicochemical. Particulars: for Detection result of the content of test sample (%) Day 5: Day 5, relative to Day 0; for Detection result of the content of test sample (%) Day 10: Day 10, relative to Day 0. The procedure: The variations of the contents of the main ingredient of the aspartic acid derivative raw material and the main ingredient of a premix containing 2% mass fraction of the aspartic acid derivative (hereinafter referred to as 2% premix) over time were investigated under the conditions of stability test at 60° C.
Experimental apparatus: drug stability incubator, Waters high-performance liquid chromatograph (HPLC), etc.
Test samples: N-carbamoyl-DL-aspartic acid (compound 1), diethyl N-carbamoyl-DL-aspartate (compound 2), Sodium N-carbamoyl-DL-aspartate (compound 3), Calcium N-carbamoyl-DL-aspartate (compound 4), Zinc N-carbamoyl-DL-aspartate (compound 5), Copper N-carbamoyl-DL-aspartate (compound 6), Iron N-carbamoyl-DL-aspartate (compound 7), N-glycyl-DL-aspartic acid (compound 8), N-(4-aminobutyryl)-DL-aspartic acid (compound 9), N-(10-aminodecanoyl)-DL-aspartic acid (compound 10), N-(14-aminomyristoyl)-DL-aspartic acid (compound 11).
Preparation of standard solution: 50 mg of the test sample raw material was ultrasonically dissolved in 50 mL of water to obtain a working reserve solution. An appropriate amount of the working reserve solution was taken and diluted with water respectively to concentrations of 125 ppm, 250 ppm, 500 ppm, and 1000 ppm for HPLC testing. It was checked whether the sample concentrations are in a linear relationship with the peak area response values in HPLC, and a standard curve was established.
Preparation of test solution: An appropriate amount of the test sample raw material and an appropriate amount of a premix containing 2% mass fraction of the test sample (hereinafter referred to as 2% premix) were separately ultrasonically dissolved in an appropriate amount of water to form a 1000 ppm solution, which is filtered through a 0.22 µm filter membrane and then analyzed by HPLC.
HPLC analysis conditions: chromatographic column: Waters C18 column (250 mm×4.6 mm, 5 μm); mobile phase: 0.05% phosphoric acid:methanol=95:5 (v:v) (raw material); 0.05% phosphoric acid: methanol (gradient elution); methanol: 5%→40% (0-15 min) curve 6, 40%→5% (15-16 min) curve 1, 5% (16-23 min) curve 1, (premix, feed); detection wavelength: 210 nm; column temperature: 25° C.; sample size: 20 μL; flow rate: 1 mL/min.
Test method: The test sample raw material and its 2% premix were placed in a culture plate, spread into a thin layer of <5 mm, and placed at 60° C. Samples were taken on the day 5 and ? day 10 for HPLC detection. Each sample was sampled three times in parallel.

The test system of a further data set is weaned piglets. Description: Breeding test: production performance of weaned piglets. Particulars: weaned piglets, 1000 ppm metal ion salt in basal daily ration, 40 days. In kind it is in vivo, Duroc×Landrace×Yorkshire cross-bred weaned piglets. The source says:
From 95 litters of 28±2 days old Duroc×Landrace×Yorkshire cross-bred weaned piglets, 360 clinically healthy piglets with similar body weights were selected as test pigs, which were randomly divided into 12 groups, with 3 replications per group and 10 pigs (half of male and female) per replication. The piglets were attracted to the food trough at the age of 7 days, and the hog house for 28-day-old weaned pigs has a cement floor, steel fence, good ventilation, and suitable temperature. The pigpens and utensils were sterilized before the test.
During the test period, the test pigs were free-stall housed in the same pigpen under the same feeding and management conditions, and were free to drink water and eat feed. The hog house was cleaned once a day, and the floor is washed once every three days to maintain clean and hygienic conditions. The test pigs were fed three times a day. The test groups include control and test groups. Group I is the control group, in which only the basal daily ration was fed to the piglets. […] 1000 ppm of a the aspartic acid derivative metal ion salt was added into the basal daily ration for the piglets in the groups VIII-XII, as shown in Table 2. No other antioxidant ingredients or growth promoters were added for the test groups during the entire feeding process. The test period was 40 days.
The test pigs were weighed during 7:00 to 9:00 in the morning of Day 0 and Day 40 after the start of the test. During the test period, the feed intake and health status of the piglets were observed every day, the remaining daily ration was weighed, the feed consumption was recorded, and the average daily feed intake (ADFI, g/d*each pig), the average daily gain (ADG, g/d*each pig), and the feed conversion ratio (FCR) were calculated. Calculation formulas are as follows: […]
The test data was statistically analyzed using SPSS18 software. First, a one-way analysis of variance (ANOVA) was performed on the data. If the difference between treatments is significant, Duncan's method was used for multiple comparisons, and the significance level was 0.05.

The structures appear in SMILES notation. Marks after values point to notes of the source that are not given here.

Turning to `NC(=O)NC(CC(=O)[O-])C(=O)[O-].[Zn+2]` (racemic) [Compound 5, Zinc N-carbamoyl-DL-aspartate], in data set [1] (2% premix), the “Detection result of the content of test sample (%) Day 5” value (from here on “Detection result … (%) Day 5”) turned out to be 96.89% and the “Detection result of the content of test sample (%) Day 10” value (from here on “Detection result … (%) Day 10”) stood at 96.36%. Also, in data set [1] (Raw material), the “Detection result … (%) Day 5” value was 99.76% and the “Detection result … (%) Day 10” value was found to be 98.47%. In the data set with weaned piglets, the “ADFI (g/d*each pig)” value is given as 418 ± 19^c g/d*each pig, the “ADG (g/d*each pig)” value is listed as 198 ± 3^6 g/d*each pig and the FCR came to 2.11 ± 0.07.

As to `NC(=O)NC(CC(=O)[O-])C(=O)[O-].[Ca+2]` (racemic) [Compound 4, Calcium N-carbamoyl-DL-aspartate], in data set [1] (2% premix), the “Detection result … (%) Day 5” value is given as 98.93% and the “Detection result … (%) Day 10” value was determined as 97.99%. In data set [1] (Raw material), the “Detection result … (%) Day 5” value stood at 101.54% and the “Detection result … (%) Day 10” value turned out to be 101.87%. Further, in the data set on weaned piglets, the “ADFI (g/d*each pig)” value is 333 ± 8^a g/d*each pig, the “ADG (g/d*each pig)” value is given as 157 ± 0^c g/d*each pig and the FCR was found to be 2.13 ± 0.05.

As to `NC(=O)NC(CC(=O)[O-])C(=O)[O-].[Fe+2]` (racemic) [Compound 7, Iron N-carbamoyl-DL-aspartate], in data set [1] (2% premix), the “Detection result … (%) Day 5” value is on record as 96.74% and the “Detection result … (%) Day 10” value is 94.98%. Moreover, in data set [1] (Raw material), the “Detection result … (%) Day 5” value worked out at 97.63% and the “Detection result … (%) Day 10” value was 96.01%. In the data set on weaned piglets, the “ADFI (g/d*each pig)” value is reported as 330 ± 11^a g/d*each pig, the “ADG (g/d*each pig)” value is on record as 153 ± 1^bc g/d*each pig and the FCR stood at 2.15 ± 0.06.

Consider `NC(=O)NC(CC(=O)[O-])C(=O)[O-].[Cu+2]` (racemic) [Compound 6, Copper N-carbamoyl-DL-aspartate], for which, in data set [1] (2% premix), the “Detection result … (%) Day 5” value amounted to 98.28% and the “Detection result … (%) Day 10” value is reported as 97.94%. For the same compound, in data set [1] (Raw material), the “Detection result … (%) Day 5” value was 99.91% and the “Detection result … (%) Day 10” value was 98.31%. For the same compound, in the data set with weaned piglets, the “ADFI (g/d*each pig)” value is recorded as 329 ± 13^a g/d*each pig, the “ADG (g/d*each pig)” value was 156 ± 1^c g/d*each pig and the FCR is listed as 2.11 ± 0.07.

Consider `NC(=O)NC(CC(=O)[O-])C(=O)[O-].[Na+].[Na+]` (racemic) [Compound 3, Sodium N-carbamoyl-DL-aspartate], for which, in data set [1] (2% premix), the “Detection result … (%) Day 5” value came out at 99.33% and the “Detection result … (%) Day 10” value was found to be 99.21%. Besides, in data set [1] (Raw material), the “Detection result … (%) Day 5” value is reported as 103.02% and the “Detection result … (%) Day 10” value is listed as 103.53%. Further, in the data set on weaned piglets, the “ADFI (g/d*each pig)” value is given as 388 ± 11^bc g/d*each pig, the “ADG (g/d*each pig)” value is 182 ± 2^d g/d*each pig and the FCR worked out at 2.13 ± 0.04.
